Data published in ChEMBL document CHEMBL1124243, “Application of the message-address concept in the design of highly potent and selective non-peptide delta opioid receptor antagonists” (J Med Chem, 1988).
Activity calls are given as the source filed them. The rule behind the calls is not given here.

What was measured:
[1] = target: Mu-type opioid receptor (Cavia porcellus) (UniProt P97266); test: Antagonistic activity against Opioid receptor mu 1 using morphine in guinea pig ileum preparation; D means no significant antagonism at 200 nM; type: functional, tissue-based
Chain of Mu-type opioid receptor (Cavia porcellus) (P97266 whole entry): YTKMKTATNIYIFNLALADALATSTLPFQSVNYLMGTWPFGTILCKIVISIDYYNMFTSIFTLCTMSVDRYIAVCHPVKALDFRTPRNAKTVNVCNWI

[2] = target: Kappa-type opioid receptor (Cavia porcellus) (UniProt P41144); test: Antagonistic activity against Opioid receptor kappa 1 using ethylketazocine in guinea pig ileum preparation; No significant antagonism at 200 nM; type: functional, tissue-based
Chain of Kappa-type opioid receptor (Cavia porcellus) (P41144 whole entry): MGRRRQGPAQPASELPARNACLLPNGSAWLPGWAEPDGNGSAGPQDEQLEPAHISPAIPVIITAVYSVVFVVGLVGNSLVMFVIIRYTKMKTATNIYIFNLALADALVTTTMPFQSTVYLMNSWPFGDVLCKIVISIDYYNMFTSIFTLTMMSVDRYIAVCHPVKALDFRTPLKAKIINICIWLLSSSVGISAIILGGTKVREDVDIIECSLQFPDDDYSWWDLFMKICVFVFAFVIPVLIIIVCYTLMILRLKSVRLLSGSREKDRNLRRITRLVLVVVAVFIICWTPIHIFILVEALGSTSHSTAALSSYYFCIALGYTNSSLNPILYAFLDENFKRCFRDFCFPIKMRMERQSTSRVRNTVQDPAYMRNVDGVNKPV

[3] = target: Delta-type opioid receptor (Mus musculus) (UniProt P32300); test: Antagonistic activity against Opioid receptor delta 1 using [D-Ala2,D-Leu5]enkephalin in mouse vas deferens preparation; type: functional
Chain of Delta-type opioid receptor (Mus musculus) (P32300 whole entry): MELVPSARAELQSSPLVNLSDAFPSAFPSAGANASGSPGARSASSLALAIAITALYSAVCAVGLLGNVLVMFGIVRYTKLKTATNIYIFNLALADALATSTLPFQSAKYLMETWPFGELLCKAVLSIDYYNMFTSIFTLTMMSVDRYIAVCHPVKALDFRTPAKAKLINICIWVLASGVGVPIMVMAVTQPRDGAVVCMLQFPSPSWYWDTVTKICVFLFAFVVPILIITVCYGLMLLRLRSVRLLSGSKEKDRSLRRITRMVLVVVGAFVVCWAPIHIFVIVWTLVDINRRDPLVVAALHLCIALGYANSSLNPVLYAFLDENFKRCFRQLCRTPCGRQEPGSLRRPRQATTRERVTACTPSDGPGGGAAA

[4] = target: Kappa-type opioid receptor (Cavia porcellus) (UniProt P41144); test: Antagonistic activity against Opioid receptor kappa 1 using ethylketazocine in guinea pig ileum preparation; type: functional, tissue-based
[5] = target: Mu-type opioid receptor (Cavia porcellus) (UniProt P97266); conditions: Ileum
Description: Antagonistic activity against Opioid receptor mu 1 receptor using morphine in guinea pig ileum preparation

[6] = target: Mu-type opioid receptor (Cavia porcellus) (UniProt P97266); test: Antagonistic activity against Opioid receptor mu 1 using morphine in guinea pig ileum preparation; type: functional, tissue-based

Compound | Ke [1] | Ke [2] | Ke [3] [nM] | Ke [4] [nM] | Ke [5] [nM] | Ke [6] [nM]
Cc1ccc2[nH]c3c(c2c1)C[C@@]1(O)[C@H]2Cc4ccc(O)c5c4[C@@]1(CCN2CC1CC1)[C@H]3O5 | inactive | inactive | 4.2 |  |  | 
Oc1ccc2c3c1O[C@H]1c4[nH]c5ccc(F)cc5c4C[C@@]4(O)[C@@H](C2)N(CC2CC2)CC[C@]314 |  |  | 2 | 46 | 61 | 
COc1ccc2[nH]c3c(c2c1)C[C@@]1(O)[C@H]2Cc4ccc(O)c5c4[C@@]1(CCN2CC1CC1)[C@H]3O5 |  |  | 5.7 | 13 |  | 63
Oc1ccc2c3c1O[C@H]1c4[nH]c5ccccc5c4C[C@@]4(O)[C@@H](C2)N(CC2CC2)CC[C@]314 |  |  | 0.21 | 58 | 32 | 
Oc1ccc2c3c1O[C@H]1c4oc5ccccc5c4C[C@@]4(O)[C@@H](C2)N(CC2CC2)CC[C@]314 |  |  | 1.1 | 48 |  | 27
